What was measured:
NKCC1 pThr203 = experiment: Phosphorylation immunoblot in KCC2-transfected HEK293 cells; type: cell-based, human
Protocol: HEK293 (human embryonic kidney 293) cells were cultured on 10-cm-diameter dishes in DMEM supplemented with 10% (v/v) foetal bovine serum, 2 mM L-glutamine, 100 U/ml penicillin and 0.1 mg/ml streptomycin. HEK293 cells were transfected with a mixture of 20 μl of 1 mg/ml polyethylenimine (Polysciences) and 5-10 μg of plasmid DNA as described previously (Durocher et al., 2002). 36 hours post-transfection cells were stimulated with either control isotonic or hypotonic medium for a period of 30 minutes. Cells were lysed in 0.3 mL of ice-cold lysis buffer/dish, lysates were clarified by centrifugation at 4° C. for 15 minutes at 26,000 g and the supernatant aliquots were frozen in liquid nitrogen and stored at −20° C. Protein concentrations were determined using the Bradford method. Cells were treated with the indicated concentrations of the SPAK/OSR1 inhibitors. […] Hypotonic low chloride buffer was 67.5 mM sodium-gluconate, 2.5 mM potassium-gluconate, 0.25 mM CaCl2), 0.25 mM MgCl2, 0.5 mM Na2HPO4, 0.5 mM Na2SO4 and 7.5 mM HEPES (pH 7.5).
(§1) The membranes were incubated for 30 min with TBST (Tris-buffered saline, 0.05% Tween-20) containing 5% (w/v) skim milk. The blots were then washed six times with TBST and incubated for 1 hour at room temperature with secondary HRP-conjugated antibodies diluted 5000-fold in 5% (w/v) skim milk in TBST. After repeating the washing steps, signals were detected with enhanced chemiluminescence reagent. Immunoblots were developed using a film automatic processor (SRX-101; Konica Minolta Medical) and films were scanned at 600 dpi (PowerLook 1000; UMAX). Figures were generated using Photoshop/Illustrator (Adobe). The densities of bands were measured with ImageJ. For phospho-antibody immunoprecipitation, KCC isoforms were immunoprecipitated from indicated cell extracts. 2 mg of the indicated clarified cell extract were mixed with 15 μg of the indicated phospho-specific KCC antibody conjugated to 15 μl of protein-G-Sepharose, in the added presence of […] of the dephosphorylated form of the phosphopeptide antigen, and incubated 2 hours at 4° C. with gentle shaking. Immunoprecipitates were washed three times with 1 mL of lysis buffer containing 0.15 M NaCl and twice with 1 ml of buffer A. Bound proteins were eluted with 1×LDS sample buffer.
HEK293 cells were transfected with a DNA construct encoding wild type N-terminally FLAG-tagged KCC2. 36 hrs post-transfection, cells were exposed 30 min to either control isotonic or hypotonic low [C1^−] conditions, then treated in the same conditions for an additional 30 min with the indicated inhibitors at the concentrations noted. Cell lysates were subjected to SDS-PAGE and Western blotting with the indicated antibodies. See FIG. 3 for Western blot quantitation.
Referring to FIG. 2, concentration-response experiments testing effects of Closantel analogs on phosphorylation of KCC2 Thr906/Thr1007 are shown. HEK293 cells were transfected with DNA construct encoding wild type N-terminally FLAG-tagged KCC2. 36 h post-transfection, cells were exposed 30 min to either control isotonic conditions or hypotonic low Cl^− conditions, then treated in the same conditions with the specified inhibitors (1b, 1c, 1f, 1d, 1h, and 1g, respectively) at the indicated concentrations for an additional 30 min. Lysates were subjected to SDS-PAGE and Western blotting with the indicated antibodies.
Referring to FIG. 3, HEK293 cells were transfected with the DNA construct encoding wild type N-terminally FLAG-tagged KCC2. 36 h post-transfection, cells were exposed 30 min to either control isotonic or hypotonic low Cl^− conditions, then treated in the same conditions with the specified inhibitors at the indicated concen-trations for an additional 30 min. Lysates were subjected to SDS-PAGE and Western blotting with the indicated antibodies. Closantel, STOCK1S-14279 and STOCK1S-50699 were used as reference compounds.

pSPAK/pOSR1 and pNKCC1 = experiment: Phosphorylation in ischemic mouse brains, immunoblot; type: in vivo
Protocol: as §1
(§2) Brain homogenates were prepared as previously described (Bhuiyan et al. (2017) Journal of cerebral blood flow and metabolism: official journal of the International Society of Cerebral Blood Flow and Metabolism 37: 2780-2794). Mice were anesthetized with 5% isoflurane vaporized in N20 and 02 (3:2), then decapitated. […] The pellet was re-suspended in the homogenization buffer. Protein content in both membrane and cytosolic fractions was determined by the standard bicinchoninic acid method.
(§3) Referring to FIG. 14A, representative immunoblots (IB) of phospho-SPAK/OSR1 (pSPAK/pOSR1), phospho-KCC3 and phospho-NKCC1 (pNKCC1) in mouse brains studied 24 hrs post-reperfusion after ischemic stroke are shown. Membrane protein fractions were prepared from contralateral (CL) and ipsilateral (IL) cerebral hemispheres. Vehicle (Veh, DMSO) or ZT-1a (5 mg/kg) was administered as described in FIG. 11A, FIG. 11B, and FIG. 13. Na^+-K^+ ATPase α-subunit and GAPDH served, respectively, as loading controls for membrane and cytosol fractions.
(§4) Referring to FIG. 14B, densitometry analyses of immunoblots (similar to those in panel A) of pSPAK/pOSR1, pNKCC1, tSPAK/tOSR1, and tNKCC1 in mouse brains studied 24 hrs reperfusion after tMCAO are shown. Data are means±SEM, n=5 per group (male 3, female 2). *p<0.05.

pKCC3 = experiment: as above; type: in vivo
Protocol: as §1, §2, §3, §4

[1] = ZT-1a content in brain and plasma, sham vs tMCAO mice, LC-MS/MS; type: in vivo, mouse; conditions: 2 hrs post-injection
Protocol: ZT-1a content in brain homogenates and plasma was assayed at the University of Pittsburgh Small Molecule Biomarker Core, using liquid chromatography-tandem mass spectrometry (LC-MS/MS). C57BL/6j mice (normotensive male, 11 weeks old) at 3 hr post Sham surgery or tMCAO were intraperitoneally injected with 5 mg/kg ZT-1a. At 2 hr post injection, blood was collected into heparin-treated EP tubes by a cardiac puncture. After a brief cardiac perfusion with ice-cold normal saline, brain tissues (contralateral and ipsilateral hemispheres) were collected. Plasma samples were prepared by centrifugation of whole blood for 10 min at 1,500 g using a refrigerated centrifuge. Brain tissues and plasma samples were diluted, and protein was precipitated with acetonitrile prior to detection of ZT-1a with a triple quad mass spectrometer. Glyburide was used as the internal standard. Samples were then injected by autosampler and ZT-1a was eluted from a Waters Acquity UPLC BEH C18, 1.7 um, 2.1×100 mm reversed-phase column with a water (with 0.1% formic acid) and acetonitrile (with 0.1% formic acid) gradient.

humans = conditions: in vivo, 25 mg/kg; cited from earlier work
[2] = compared to vehicle-control mice
[3] = ipsilateral cortex membrane fractions, 24 hrs reperfusion, 5 mg/kg

Row | SMILES | inhibition at 1 µM (NKCC1 pThr203; Homo sapiens, read-out: inhibition of NKCC1 p-Thr203/207/212, up to, at 1 μM, n=4) [%] | NKCC1 pThr203 (μM) hypo (NKCC1 pThr203; hypotonic low Cl- conditions, concentration inhibiting phosphorylation) | NKCC1 pThr203 (μM) Iso (NKCC1 pThr203; isotonic conditions, concentration inhibiting phosphorylation) | reduction of ischemia-induced elevations of pSPAK and pNKCC1 (pSPAK/pOSR1 and pNKCC1; [2]) | effect on ischemia-induced increases of pSPAK/pOSR1 and pNKCC1 (pSPAK/pOSR1 and pNKCC1; [3]) | reduction of ischemia-induced elevations of pKCC3 (pKCC3; [2]) [%] | effect on ischemia-induced increases of pKCC3 (pKCC3; [3]) | brain concentrations, stroke mice vs sham-controls ([1]; 5 mg/kg i.p. at 3 hrs after tMCAO, n=10-11) [fold] | plasma bioavailability, sham control vs ischemic stroke mice ([1]; 5 mg/kg i.p., p=0.29) | adverse effects in humans (humans)
1 | Cc1cc(C(C#N)c2ccc(Cl)cc2)c(Cl)cc1NC(=O)c1cc(Cl)ccc1O (stereo not shown) [ZT-1a, 5-chloro-N-(5-chloro-4-((4-chlorophenyl)(cyano)methyl)-2-methylphenyl)-2-hydroxy-benzamide] | ≤ 72 | 1, 1 μM | 1, 1 μM | 55-65% | prevented ischemia-induced increases | 30 | prevented ischemia-induced increases | ~1.8 | no significant difference | –
2 | Cc1cc(C(C#N)c2ccc(Cl)cc2)c(Cl)cc1NC(=O)c1cc(I)cc(I)c1O (stereo not shown) [Closantel] | – | – | – | – | – | – | – | – | – | weakness, visual impairment and blindness
